According to patent publication US20240270821A1, “GIP/GLP1/GCG TRI-RECEPTOR AGONISTS AND USES THEREOF” (priority 2023, published 2024):
Read-outs that look alike come from different tables or passages of the source. Marks after values point to notes of the source that are not given here. Starred links: 1 amine or outer side, 2 acyl side, 3 side chain; linkers in the order of their positions; H or OH if unused. Non-standard residues stand in square brackets, D forms with d. Groups on a side chain read outwards from the residue. No end group written: not given here. *: point of attachment. C20 diacid = O=C(O)CCCCCCCCCCCCCCCCCCC(=O)*; C18 diacid = O=C(O)CCCCCCCCCCCCCCCCC(=O)*; αMePhe(2-F) = C[C@](N)(Cc1ccccc1F)C(=O)O; γGlu = O=C(O)[C@H](CCC(=O)[*:2])N[*:1]; NMeY = CN[C@@H](Cc1ccc(O)cc1)C(=O)O; αMeF = C[C@](N)(Cc1ccccc1)C(=O)O; 4Pal = N[C@@H](Cc1ccncc1)C(=O)O; αMeL = CC(C)C[C@](C)(N)C(=O)O; Orn = NCCC[C@H](N)C(=O)O; Dap = NC[C@H](N)C(=O)O; AEEA = NCCOCCOCC(=O)O; Aib = CC(C)(N)C(=O)O

How the values were obtained:
[1] = target: human GcgR (Homo sapiens, UniProt P47871); experiment: Functional cAMP activity in the presence of 1% HSA; format: cell-based
human GcgR, sequence (P47871 26-477): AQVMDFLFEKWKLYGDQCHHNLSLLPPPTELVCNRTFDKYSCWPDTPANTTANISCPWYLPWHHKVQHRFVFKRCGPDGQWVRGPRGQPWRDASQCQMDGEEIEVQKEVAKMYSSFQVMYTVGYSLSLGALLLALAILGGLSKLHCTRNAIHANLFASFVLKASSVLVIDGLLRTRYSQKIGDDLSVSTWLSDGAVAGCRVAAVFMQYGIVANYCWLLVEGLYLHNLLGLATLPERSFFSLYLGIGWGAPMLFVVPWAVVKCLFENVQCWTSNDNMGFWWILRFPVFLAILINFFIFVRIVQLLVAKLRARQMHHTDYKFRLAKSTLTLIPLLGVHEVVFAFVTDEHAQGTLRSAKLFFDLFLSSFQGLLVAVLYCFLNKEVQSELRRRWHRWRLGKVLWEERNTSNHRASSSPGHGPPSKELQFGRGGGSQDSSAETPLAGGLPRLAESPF

[2] = target: T1, hGLP-1R (Homo sapiens, UniProt P43220); experiment: Functional cAMP activity in the presence of 1% HSA; format: cell-based
Target sequence in this assay (P43220 24-463): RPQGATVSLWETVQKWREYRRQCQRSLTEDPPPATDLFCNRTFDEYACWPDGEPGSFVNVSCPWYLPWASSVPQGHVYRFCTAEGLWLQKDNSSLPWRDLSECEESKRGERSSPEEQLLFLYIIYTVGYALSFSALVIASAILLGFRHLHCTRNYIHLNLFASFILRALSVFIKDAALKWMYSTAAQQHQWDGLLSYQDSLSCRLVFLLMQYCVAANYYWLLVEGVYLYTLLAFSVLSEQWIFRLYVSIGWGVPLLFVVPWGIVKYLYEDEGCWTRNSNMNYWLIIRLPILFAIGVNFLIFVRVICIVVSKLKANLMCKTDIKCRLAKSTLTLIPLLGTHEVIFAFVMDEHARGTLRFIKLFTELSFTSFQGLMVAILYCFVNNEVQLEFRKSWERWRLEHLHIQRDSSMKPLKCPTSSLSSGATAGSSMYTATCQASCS

[3] = target: T2, hGIPR (Homo sapiens, UniProt P48546); experiment: Functional cAMP activation in the presence of 0.1% casein (no HSA); format: cell-based;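 note: intracellular cAMP rise after 30 min at 37 °C read by HTRF against a standard curve, scaled between buffer alone (0%) and top control ligand concentration (100%), four-parameter fit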
T2 sequence (P48546 22-466): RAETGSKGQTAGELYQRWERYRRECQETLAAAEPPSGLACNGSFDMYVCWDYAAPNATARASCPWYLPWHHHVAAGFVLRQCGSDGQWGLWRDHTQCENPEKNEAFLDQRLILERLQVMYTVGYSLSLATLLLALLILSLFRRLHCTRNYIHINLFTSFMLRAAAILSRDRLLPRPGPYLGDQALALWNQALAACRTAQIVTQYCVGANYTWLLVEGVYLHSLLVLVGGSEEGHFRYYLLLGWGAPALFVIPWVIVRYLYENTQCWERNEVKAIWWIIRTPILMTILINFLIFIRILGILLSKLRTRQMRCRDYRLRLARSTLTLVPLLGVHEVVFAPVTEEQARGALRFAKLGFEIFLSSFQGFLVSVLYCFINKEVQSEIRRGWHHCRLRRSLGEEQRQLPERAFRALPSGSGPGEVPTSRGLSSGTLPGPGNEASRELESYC

[4] = Body weight in diet-induced obese C57BL/6 mice; format: in vivo; conditions: percent of starting weight, DIO mice, mean ± SEM n=5
Method: To investigate the effect of the polypeptides as described herein on weight loss, exemplary polypeptides are dosed to C57BL/6 diet-induced obese (DIO) mice. Specifically, DIO male C57BL/6 mice (Taconic, Germantown, NY) maintained on a calorie-rich diet are used in the following studies. Mice are individually housed in a temperature-controlled (24° C.) facility with 12-hour light/dark cycle (lights on 22:00) and free access to food (TD95217) and water. After a minimum of 2 weeks acclimation to the facility, the mice are randomized according to their body weight, so each experimental group of animals would have similar starting body weight. The body weights range from 41 to 50 g. All groups contain 5 mice. […] Treatments are administered by subcutaneous (SC) injection (10 mL/kg) to ad libitum fed DIO mice 30 to 90 minutes prior to the onset of the dark cycle either once daily (QD) or once every 3 days (Q3D) for 9-16 days. Body weight and food intake are measured daily throughout the study. Body weight is presented as percent of the starting weight. […] Data are presented as mean±SEM of 5 animals per group in Table 7 below. Statistical analysis is performed using repeated measures ANOVA, followed by Dunnett's method comparison test.

[5] = target: T1, hGLP-1R; experiment: GLP-1R CHO cell β-arrestin recruitment assay; format: cell-based; parameters: host or cells: CHO-K1 (PathHunter, assay-ready frozen cells); conditions: for EC50: CHO-K1 PathHunter, β-arrestin-2, 0.1% casein, read-out: hGLP1R β-arrestin Rel EC50; for % Stimulation Max: normalized to GLP-1(7-36) as maximum control;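 for all read-outs here: luminescence read after 90 min peptide exposure at 37 °C and a further 60 min with detection reagent at room temperature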
Target sequence in this assay (P43220 24-463): as the sequence (P43220 24-463) above
Target sequence in this assay (P32121 whole entry partner): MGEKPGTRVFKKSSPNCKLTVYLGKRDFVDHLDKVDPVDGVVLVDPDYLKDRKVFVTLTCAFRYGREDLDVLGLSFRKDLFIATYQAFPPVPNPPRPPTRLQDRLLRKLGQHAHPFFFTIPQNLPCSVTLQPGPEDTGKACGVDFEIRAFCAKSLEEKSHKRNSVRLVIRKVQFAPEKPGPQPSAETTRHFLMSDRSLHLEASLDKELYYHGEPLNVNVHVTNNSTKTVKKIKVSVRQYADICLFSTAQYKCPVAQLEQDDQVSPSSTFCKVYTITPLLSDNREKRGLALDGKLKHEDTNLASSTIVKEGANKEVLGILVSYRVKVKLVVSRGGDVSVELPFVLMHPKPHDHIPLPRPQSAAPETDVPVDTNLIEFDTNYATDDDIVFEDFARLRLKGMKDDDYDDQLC

[6] = target: T2, hGIPR; experiment: Functional cAMP activity in the presence of 1% HSA; format: cell-based
[7] = target: T1, hGLP-1R; experiment: Functional cAMP activation in the presence of 0.1% casein (no HSA); format: cell-based;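 for Relative cAMP EC50, hGLP-1R: intracellular cAMP rise after 30 min at 37 °C read by HTRF, normalized between buffer only (0%) and maximal control ligand (100%), four-parameter variable-slope fit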;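 for Relative cAMP EC50, hGcgR: intracellular cAMP rise after 30 min at 37 °C, read by HTRF against a cAMP standard curve, scaled from buffer only (0%) to maximal control ligand response (100%)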
Target sequence in this assay (P43220 24-463): as the sequence (P43220 24-463) above

[8] = target: hGcgR (Homo sapiens, UniProt P47871); experiment: as above; format: cell-based;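 note: intracellular cAMP rise after 30 min at 37 °C, read by HTRF against a cAMP standard curve, scaled from buffer only (0%) to maximal control ligand response (100%)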
hGcgR, sequence (P47871 26-477): as the sequence (P47871 26-477) above

[9] = target: human GLP1-R (Homo sapiens, UniProt P43220); experiment: GLP1-R internalization assay in HEK293 cells; format: cell-based; conditions: for Internalization % TOP: normalized to maximum concentration of GLP-1 (100%)
human GLP1-R, sequence (P43220 24-463): as the sequence (P43220 24-463) above

[10] = system: Intestinal organoid from Göttingen minipig jejunum tissue, 2D monolayer; experiment: Cell based in vitro permeability (Papp) assay; format: in vitro ADME
Procedure, shortened: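 Papp calculated from LC/MS peptide levels in apical and basal compartments. Basal sampling at 20 min with C10 present, across monolayers grown from dissociated minipig jejunal organoids in transwells.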

[11] = read-out: cAMP Rel EC50, hGLP-1R
[12] = in the presence of 0.1% casein (no HSA), geometric mean, read-out: Relative cAMP EC50, hGIPR
[13] = in the presence of 0.1% casein (no HSA), geometric mean, read-out: Relative cAMP EC50, hGLP-1R
[14] = in the presence of 0.1% casein (no HSA), geometric mean, read-out: Relative cAMP EC50, hGcgR
[15] = HEK293 cells expressing SNAP-GLP-1R, read-out: GLP1R Internalization EC50

| Substance | EC50 ([1]; read-out: cAMP Rel EC50, hGcgR) | EC50 [2, 11] | EC50 [3, 12] | Body weight (%) ([4]; 10 nmol/kg SC QD, 16 days) | EC50 [5] | % Stimulation Max [5] | EC50 ([6]; read-out: cAMP Rel EC50, hGIPR) | EC50 [7, 13] | EC50 [8, 14] | Body weight (%) ([4]; 10 nmol/kg SC Q3D, 14 days) | EC50 [9, 15] | Internalization % TOP [9] | Relative Papp (Compared to internal standard) [10] | EC50 [1] | EC50 [2] | EC50 [3] | EC50 [9] | EC50 [6] | EC50 [7] | EC50 [8] |
| --- | --- | --- | --- | --- | --- | --- | --- | --- | --- | --- | --- | --- | --- | --- | --- | --- | --- | --- | --- | --- |
| H-[NMeY][Aib]QGT[αMeF]TSDYSSLLDKIAAK([AEEA-AEEA-γGlu-C20 diacid])AFIEYLLEGGPSSGEPPPSEG-NH2 [Example 297] | 2320 nM | 1130 nM | 0.626 nM | 48.42 ± 2.86 % | 60.2 nM | 33.5% | 325 nM | 2.96 nM | 3.26 nM |  |  |  |  |  |  |  |  |  |  |  |
| H-Y[Aib]QGTFTSDFS[Orn][αMeL]LDKK([AEEA-γGlu-C18 diacid])AQ[Aib]AFIEWLLEGGPSSGAPPPEGS-NH2 [Example 121] | 442 nM | 348 nM | 0.172 nM |  |  |  | 24.6 nM | 2.38 nM | 4.89 nM | 85.58 +/− 3.20**** % | 38.1 nM | 46.3% | 0.08 |  |  |  |  |  |  |  |
| H-Y[Aib]QGT[αMePhe(2-F)]TSDYSKLLDKIAQK([AEEA-γGlu-C20 diacid])AFIEYLLEGGPSSGEPPPSEG-NH2 [Example 295] | 605 nM | 232 nM | 0.126 nM | 51.58 ± 3.24 % | 16.4 nM | 44.1% | 61.1 nM | 0.831 nM | 2.15 nM |  | 31.4 nM | 88.4% |  |  |  |  |  |  |  |  |
| Y[Aib]QGTFTSDFS[Orn][αMeL]LDKK([AEEA-γGlu-C18 diacid])AQ[Aib]AFIEYLLEGGPSSGAPPPGGS-NH2 [Example 62] | 396 nM | 299 nM | 0.146 nM |  |  |  | 31.2 nM | 2.72 nM | 3.96 nM | 88.05 +/− 1.08*** % | 40.3 nM | 44.9% | 0.03 |  |  |  |  |  |  |  |
| H-Y[Aib]QGTFTSDFSK[αMeL]LDKK([AEEA-γGlu-C20 diacid])AQ[Aib]AFIEYLLAGGPSSGEPPPSEE-NH2 [Example 4] | 1580 nM | 869 nM | 0.192 nM |  | 23.2 nM | 15.8% | 62.3 nM | 1.66 nM | 3.2 nM | 83.00 +/− 0.88**** % | 49.1 nM | 67.8% |  |  |  |  |  |  |  |  |
| H-Y[Aib]QGTFTSDYSK[αMeL]LDKK([AEEA-γGlu-C20 diacid])AQQAFVQWLIEGGPSSGEPPPSEG-NH2 [Example 315] | 1560 nM | 140 nM | 0.398 nM |  | 3.76 nM | 29.7% | 85.1 nM | 0.508 nM | 4.05 nM | 79.76 +/− 1.72**** % |  |  |  |  |  |  |  |  |  |  |
| H-Y[Aib]QGTFTSDFS[Dap][αMeL]LDKK([AEEA-γGlu-C18 diacid])AQ[Aib]AFIEYLLE[Aib]GPSSGAPPPSGS-NH2 [Example 134] | 1200 nM | 549 nM | 0.152 nM |  |  |  | 38.3 nM | 3.36 nM | 7.28 nM | 93.28 +/− 1.38% | 67.9 nM | 22.3% | 0.07 |  |  |  |  |  |  |  |
| H-Y[Aib]QGTFTSDFS[Orn][αMeL]LDKK([AEEA-γGlu-C18 diacid])AQ[Aib]AFIEWLLEGGHSSGAPPPEGS-NH2 [Example 126] | 1120 nM | 838 nM | 0.264 nM |  |  |  | 40.3 nM | 3.97 nM | 6.81 nM | 95.68 +/− 0.90% | 63.2 nM | 38.8% |  |  |  |  |  |  |  |  |
| H-Y[Aib]QGTFTSD[4Pal]SR[αMeL]LDKK([AEEA-γGlu-C18 diacid])AQ[Aib]AFIEYLLE[Aib]GESSGAPPPSGS-NH2 [Example 132] | 632 nM | 823 nM | 0.21 nM |  |  |  | 25.9 nM | 5.72 nM | 2.63 nM | 98.66 +/− 0.47% | 72.7 nM | 67.2% |  |  |  |  |  |  |  |  |
| H-Y[Aib]QGTFTSDFSK[αMeL]LDKK([AEEA-γGlu-C18 diacid])AQ[Aib]AFIEYLLAGGPSSGEPPPSGE-NH2 [Example 23] | 573 nM | 308 nM | 0.178 nM |  |  |  | 25.5 nM | 2.98 nM | 5.13 nM | 80.86 +/− 1.25**** % | 51.5 nM | 67.2% |  |  |  |  |  |  |  |  |
| Y[Aib]QGTFTSDFS[Orn][αMeL]LDKK([AEEA-γGlu-C18 diacid])AQ[Aib]AFIEYLLAGGPSSGEPPPEGE-NH2 [Example 98] | 867 nM | 660 nM | 0.179 nM |  |  |  | 33.8 nM | 4.35 nM | 6.91 nM | 90.78 +/− 1.26* % | 56 nM | 49.3% |  |  |  |  |  |  |  |  |
| H-Y[Aib]QGTFTSDFS[Orn][αMeL]LDKK([AEEA-AEEA-γGlu-C18 diacid])AQ[Aib]AFIEYLLE[Aib]GPSSGAPPPSGS-NH2 [Example 75] | 1040 nM | 878 nM | 0.0578 nM |  |  |  | 16.8 nM | 4.4 nM | 4.51 nM | 96.28 +/− 1.51% | 61.8 nM | 51.9% |  |  |  |  |  |  |  |  |
| H-H[Aib]QGT[αMePhe(2-F)]TSDYSILLDKK([AEEA-γGlu-C20 diacid])AA[Aib]AFIEYLIETGPSSGEPPPSEG-NH2 [Example 290] | 878 nM | 90 nM | 0.43 nM | 65.40 ± 3.45 % | 3.94 nM | 83.5% | 53.4 nM | 0.34 nM | 2.68 nM |  |  |  |  |  |  |  |  |  |  |  |
| H-Y[Aib]QGTFTSDFSK[αMeL]LDKK([AEEA-γGlu-C20 diacid])AQ[Aib]AFIEWLLAGGPSSGEPPPSGE-NH2 [Example 21] | 1510 nM | 324 nM | 0.218 nM |  |  |  | 29.1 nM | 2.7 nM | 12.4 nM | 83.70 +/− 0.86**** % | 87.6 nM | 72.5% |  |  |  |  |  |  |  |  |
| H-Y[Aib]QGTFTSDFS[Orn][αMeL]LDKK([AEEA-γGlu-C18 diacid])AQ[Aib]AFIEYLLAGGPSSGEPPPSGS-NH2 [Example 94] | 1220 nM | 480 nM | 0.154 nM |  |  |  | 21.4 nM | 2.63 nM | 8.16 nM | 84.92 +/− 1.79**** % | 37.1 nM | 47.2% | 0.02 |  |  |  |  |  |  |  |
| H-Y[Aib]QGTFTSDFSK[αMeL]LDKK([AEEA-γGlu-C20 diacid])AQQAFIEYLLA[Aib]GPSSGAPPPSEG-NH2 [Example 30] |  |  |  |  |  |  |  |  |  | 90.12 +/− 0.30** % |  | 72.8% |  | 969 nM | 806 nM | 0.247 nM | 70.4 nM | 72.9 nM | 3.18 nM | 5.22 nM |
